For the assay, the target named is T1, human recombinant HDAC6 (Homo sapiens, UniProt Q9UBN7).
T1 construct: purchased Calbiochem 382180
T1 sequence (Q9UBN7 1-1215): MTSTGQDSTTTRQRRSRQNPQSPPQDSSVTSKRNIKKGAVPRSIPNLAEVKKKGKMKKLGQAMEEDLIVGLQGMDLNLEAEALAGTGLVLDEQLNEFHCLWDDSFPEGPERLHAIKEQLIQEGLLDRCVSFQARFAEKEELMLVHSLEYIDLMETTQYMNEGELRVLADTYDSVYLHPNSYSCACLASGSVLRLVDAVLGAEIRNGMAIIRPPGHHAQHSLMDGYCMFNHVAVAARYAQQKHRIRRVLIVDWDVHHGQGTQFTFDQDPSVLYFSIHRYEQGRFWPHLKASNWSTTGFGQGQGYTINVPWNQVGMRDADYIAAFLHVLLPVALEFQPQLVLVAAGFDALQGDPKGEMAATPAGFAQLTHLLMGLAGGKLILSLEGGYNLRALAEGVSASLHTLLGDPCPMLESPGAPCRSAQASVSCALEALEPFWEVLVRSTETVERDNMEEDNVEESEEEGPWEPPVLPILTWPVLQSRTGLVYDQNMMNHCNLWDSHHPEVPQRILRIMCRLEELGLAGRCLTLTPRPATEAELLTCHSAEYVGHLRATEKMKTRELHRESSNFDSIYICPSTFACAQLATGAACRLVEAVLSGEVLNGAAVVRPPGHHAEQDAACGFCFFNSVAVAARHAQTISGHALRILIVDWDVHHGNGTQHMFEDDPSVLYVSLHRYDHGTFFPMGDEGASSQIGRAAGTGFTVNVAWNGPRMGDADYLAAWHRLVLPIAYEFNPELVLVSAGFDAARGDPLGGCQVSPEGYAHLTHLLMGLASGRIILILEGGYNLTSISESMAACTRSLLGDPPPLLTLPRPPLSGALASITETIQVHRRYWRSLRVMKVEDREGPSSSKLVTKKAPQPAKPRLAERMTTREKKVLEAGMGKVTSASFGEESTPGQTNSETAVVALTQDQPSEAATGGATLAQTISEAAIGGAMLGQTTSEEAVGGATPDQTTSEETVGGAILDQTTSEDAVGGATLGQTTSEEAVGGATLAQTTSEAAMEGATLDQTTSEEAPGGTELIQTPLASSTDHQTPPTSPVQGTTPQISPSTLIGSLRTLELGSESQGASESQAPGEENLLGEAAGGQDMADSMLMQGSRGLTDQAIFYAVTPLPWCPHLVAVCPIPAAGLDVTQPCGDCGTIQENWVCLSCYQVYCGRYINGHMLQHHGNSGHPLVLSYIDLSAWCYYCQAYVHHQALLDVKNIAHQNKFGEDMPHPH
In words: HDAC6 enzyme activity inhibition assay (HDAC Fluorimetric Drug Discovery Kit). It counts as biochemical. The settings on record: for HDAC6 selectivity (fold): HDAC1 vs HDAC6; for IC50: same protocol as the HDAC1 enzyme activity test. In short, it runs like this: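 Recombinant enzyme (0.3 μg) was incubated with 5-fold serially diluted compound and 10 μM Fluor de Lys-SIRT1 substrate for 60 min at 30° C. Developer II was then added for 30 min, fluorescence read at Ex 360/Em 460, and IC50 values were calculated.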

Structures are written as SMILES.

A word on the IC50: it is the concentration that gives 50% inhibition.

In the case of `CS(=O)(=O)N(Cc1ccc(-c2nnc(C(F)F)o2)cc1)c1ccc(Cl)cn1` [Compound 11348], the “HDAC6 selectivity (fold)” value is 758 fold and the IC50 stood at 132 nM.

For `CS(=O)(=O)N(Cc1ccc(-c2nnc(C(F)(F)F)o2)cc1F)c1ccc(F)cc1` [Compound 11275, N-(2-fluoro-4-(5-(trifluoromethyl)-1,3,4-oxadiazol-2-yl)benzyl)-N-(4-fluorophenyl)methanesulfonamide], the “HDAC6 selectivity (fold)” value worked out at 1370 fold and the half-inhibitory concentration (IC50) worked out at 73 nM.

Turning to `O=S(=O)(c1cccnc1)N(Cc1ccc(-c2nnc(C(F)F)o2)cc1)c1cccc(F)c1` [Compound 11156, N-(4-(5-(difluoromethyl)-1,3,4-oxadiazol-2-yl)benzyl)-N-(3-fluorophenyl)pyridine-3-sulfonamide], the “HDAC6 selectivity (fold)” value is 3448 fold and the half-maximal inhibitory concentration (IC50) is 29 nM.

In the case of `CS(=O)(=O)N(Cc1ccc(-c2nnc(C(F)F)o2)cc1)Cc1ccc(-c2nnc(C(F)F)o2)cc1` [Compound 11186, N,N-bis(4-(5-(difluoromethyl)-1,3,4-oxadiazol-2-yl)benzyl)methanesulfonamide], the “HDAC6 selectivity (fold)” value is listed as 433 fold and the IC50 was determined as 231 nM.

For the compound `CS(=O)(=O)N(Cc1cnc(-c2nnc(C(F)(F)F)o2)nc1)c1ccccc1` [Compound 11606, N-phenyl-N-((2-(5-(trifluoromethyl)-1,3,4-oxadiazol-2-yl)pyrimidin-5-yl)methyl)methanesulfonamide], the “HDAC6 selectivity (fold)” value is 66 fold and the 50% inhibitory concentration (IC50) stood at 1520 nM.

As for `CC(=O)N1CCCN(CCS(=O)(=O)N(Cc2ccc(-c3nnc(C(F)F)o3)cc2)c2ccccc2)CC1` [Compound 11759, 2-(4-acetyl-1,4-diazepan-1-yl)-N-(4-(5-(difluoromethyl)-1,3,4-oxadiazol-2-yl)benzyl)-N-phenylethane-1-sulfonamide], the “HDAC6 selectivity (fold)” value was determined as 984 fold and the half-maximal inhibitory concentration (IC50) is 102 nM.

With `CC(C)N1Cc2ccc(N(Cc3ccc(-c4nnc(C(F)F)o4)cc3)S(C)(=O)=O)cc2C1` [Compound 11730, N-(4-(5-(difluoromethyl)-1,3,4-oxadiazol-2-yl)benzyl)-N-(2-isopropylisoindolin-5-yl)methanesulfonamide], the “HDAC6 selectivity (fold)” value is reported as 39 fold and the IC50 stood at 2530 nM.

As for `CC1CCN(CCS(=O)(=O)N(Cc2ccc(-c3nnc(C(F)F)o3)cc2)c2ccccc2)CC1` [Compound 11675, N-(4-(5-(difluoromethyl)-1,3,4-oxadiazol-2-yl)benzyl)-2-(4-methylpiperidin-1-yl)-N-phenylethanesulfonamide], the “HDAC6 selectivity (fold)” value turned out to be 549 fold and the IC50 was determined as 182 nM.

As for `O=S(=O)(CCN1CCCN(Cc2ccccc2)CC1)N(Cc1ccc(-c2nnc(C(F)F)o2)cc1)c1ccccc1` [Compound 11760, 2-(4-benzyl-1,4-diazepan-1-yl)-N-(4-(5-(difluoromethyl)-1,3,4-oxadiazol-2-yl)benzyl)-N-phenylethane-1-sulfonamide], the “HDAC6 selectivity (fold)” value is listed as 508 fold and the IC50 was found to be 197 nM.

Turning to `N#CC1CCN(CCS(=O)(=O)N(Cc2ccc(-c3nnc(C(F)F)o3)cc2)c2ccccc2)CC1` [Compound 11818, 2-(4-cyanopiperidin-1-yl)-N-(4-(5-(difluoromethyl)-1,3,4-oxadiazol-2-yl)benzyl)-N-phenylethane-1-sulfonamide], the “HDAC6 selectivity (fold)” value is reported as 1647 fold and the half-maximal inhibitory concentration (IC50) worked out at 60.7 nM.

Regarding `O=S(=O)(CCCN1CCCC1)N(Cc1ccc(-c2nnc(C(F)F)o2)cn1)c1ccc(F)c(Cl)c1` [Compound 11721, N-(3-chloro-4-fluorophenyl)-N-((5-(5-(difluoromethyl)-1,3,4-oxadiazol-2-yl)pyridin-2-yl)methyl)-3-(pyrrolidin-1-yl)propane-1-sulfonamide], the “HDAC6 selectivity (fold)” value was 4739 fold and the IC50 amounted to 21.1 nM.

Take `CN1CC(N2CCC(S(=O)(=O)N(Cc3ccc(-c4nnc(C(F)F)o4)cc3)c3cccc(Cl)c3)CC2)C1` [Compound 11785, N-(3-chlorophenyl)-N-(4-(5-(difluoromethyl)-1,3,4-oxadiazol-2-yl)benzyl)-1-(1-methylazetidin-3-yl)piperidine-4-sulfonamide]: the “HDAC6 selectivity (fold)” value came out at 2092 fold and the IC50 is 47.8 nM.

For `O=S(=O)(CCN1CCN(CCc2ccncc2)CC1)N(Cc1ccc(-c2nnc(C(F)F)o2)cc1)c1ccccc1` [Compound 11772, N-(4-(5-(difluoromethyl)-1,3,4-oxadiazol-2-yl)benzyl)-N-phenyl-2-(4-(2-(pyridin-4-yl)ethyl)piperazin-1-yl)ethane-1-sulfonamide], the “HDAC6 selectivity (fold)” value was found to be 2057 fold and the IC50 came out at 48.6 nM.

As for `CS(=O)(=O)N(Cc1ccc(-c2nnc(C(F)F)o2)cn1)c1ccc2c(c1)CN(C1COC1)C2` [Compound 11735, N-((5-(5-(difluoromethyl)-1,3,4-oxadiazol-2-yl)pyridin-2-yl)methyl)-N-(2-(oxetan-3-yl)isoindolin-5-yl)methanesulfonamide], the “HDAC6 selectivity (fold)” value is listed as 123 fold and the IC50 came out at 809 nM.

In the case of `CCS(=O)(=O)N(Cc1ccc(-c2nnc(C(F)(F)F)o2)cc1F)c1ccccc1` [Compound 11153, N-(2-fluoro-4-(5-(trifluoromethyl)-1,3,4-oxadiazol-2-yl)benzyl)-N-phenylethanesulfonamide], the “HDAC6 selectivity (fold)” value is recorded as 793 fold and the IC50 worked out at 126 nM.

With `CS(=O)(=O)N(Cc1ccc(-c2nnc(C(F)(F)F)o2)cc1F)c1cncc(F)c1` [Compound 11272, N-(2-fluoro-4-(5-(trifluoromethyl)-1,3,4-oxadiazol-2-yl)benzyl)-N-(5-fluoropyridin-3-yl)methanesulfonamide], the “HDAC6 selectivity (fold)” value is 1961 fold and the IC50 was 51 nM.

Turning to `C[C@@H]1CN(CCCS(=O)(=O)N(Cc2ccc(-c3nnc(C(F)F)o3)cc2)c2ccccc2)C[C@H](C)N1C` [Compound 11665, N-(4-(5-(difluoromethyl)-1,3,4-oxadiazol-2-yl)benzyl)-N-phenyl-3-((3R,5S)-3,4,5-trimethylpiperazin-1-yl)propane-1-sulfonamide], the “HDAC6 selectivity (fold)” value is on record as 5263 fold and the IC50 is 19 nM.

`CS(=O)(=O)N(Cc1ccc(-c2nnc(C(F)F)o2)cn1)c1ccc2c(c1)OCO2` [Compound 11345, N-(benzo[d][1,3]dioxol-5-yl)-N-((5-(5-(difluoromethyl)-1,3,4-oxadiazol-2-yl)pyridin-2-yl)methyl)methanesulfonamide]: the “HDAC6 selectivity (fold)” value is 3571 fold and the IC50 was 28 nM.

Turning to `O=C(C1CC1)N1CC(N2CCC(S(=O)(=O)N(Cc3ccc(-c4nnc(C(F)F)o4)cn3)c3cccc(Cl)c3)CC2)C1` [Compound 11784, N-(3-chlorophenyl)-1-(1-(cyclopropanecarbonyl)azetidin-3-yl)-N-((5-(5-(difluoromethyl)-1,3,4-oxadiazol-2-yl)pyridin-2-yl)methyl)piperidine-4-sulfonamide], the “HDAC6 selectivity (fold)” value is 3154 fold and the IC50 came out at 31.7 nM.

Turning to `CS(=O)(=O)N(Cc1ccc(-c2noc(C(F)(F)F)n2)cc1)Cc1ccc(-c2nnc(C(F)F)o2)cc1F` [Compound 11389, N-(4-(5-(difluoromethyl)-1,3,4-oxadiazol-2-yl)-2-fluorobenzyl)-N-(4-(5-(trifluoromethyl)-1,2,4-oxadiazol-3-yl)benzyl)methanesulfonamide], the “HDAC6 selectivity (fold)” value is listed as 104 fold and the IC50 is 960 nM.

Take `CN1CCc2nc(N(Cc3ccc(-c4nnc(C(F)F)o4)cc3)S(C)(=O)=O)sc2C1` [Compound 11750, N-(4-(5-(difluoromethyl)-1,3,4-oxadiazol-2-yl)benzyl)-N-(5-methyl-4,5,6,7-tetrahydrothiazolo[5,4-c]pyridin-2-yl)methanesulfonamide]: the “HDAC6 selectivity (fold)” value is recorded as 77 fold and the 50% inhibitory concentration (IC50) came out at 1290 nM.

For the compound `CS(=O)(=O)N(Cc1ccc(-c2nnc(C(F)F)o2)cc1F)c1ccc(C(F)(F)F)cc1` [Compound 11221, N-(4-(5-(difluoromethyl)-1,3,4-oxadiazol-2-yl)-2-fluorobenzyl)-N-(4-(trifluoromethyl)phenyl)methanesulfonamide], the “HDAC6 selectivity (fold)” value is reported as 990 fold and the IC50 was determined as 101 nM.

For the origin of these results see patent US10538498B2, “1,3,4-oxadiazole sulfonamide derivative compounds as histone deacetylase 6 inhibitor, and the pharmaceutical composition comprising the same” (Chong Kun Dang Pharmaceutical Corp., priority 2015, dated 2020).
